This is an account of results in patent US20090298825A1, “Bicycloheteroaryl Compounds as P2x7 Modulators and Uses Thereof” (priority 2006, published 2009).

For one series, the target named is T1, P2X7 receptor (Homo sapiens, UniProt Q99572).
T1 construct: endogenous in cells; host or cells: THP-1 cells differentiated with LPS and IFN-γ
T1 sequence (Q99572 1-595): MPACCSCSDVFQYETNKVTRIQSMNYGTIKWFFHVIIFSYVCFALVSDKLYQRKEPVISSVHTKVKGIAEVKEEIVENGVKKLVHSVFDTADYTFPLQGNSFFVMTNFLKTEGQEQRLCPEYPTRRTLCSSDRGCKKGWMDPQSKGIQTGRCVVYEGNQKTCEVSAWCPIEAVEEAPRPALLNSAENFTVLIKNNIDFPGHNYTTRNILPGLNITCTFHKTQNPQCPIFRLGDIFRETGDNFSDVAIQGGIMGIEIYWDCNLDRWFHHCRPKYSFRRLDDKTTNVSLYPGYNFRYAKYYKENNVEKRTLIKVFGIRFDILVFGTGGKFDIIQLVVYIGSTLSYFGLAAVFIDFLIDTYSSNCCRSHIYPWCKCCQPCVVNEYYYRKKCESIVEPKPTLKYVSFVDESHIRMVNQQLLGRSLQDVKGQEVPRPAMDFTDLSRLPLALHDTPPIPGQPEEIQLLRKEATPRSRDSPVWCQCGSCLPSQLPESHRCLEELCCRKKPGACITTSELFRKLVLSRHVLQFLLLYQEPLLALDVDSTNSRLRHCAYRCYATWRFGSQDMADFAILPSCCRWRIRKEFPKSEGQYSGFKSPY
In words: IL-1β release assay in differentiated THP-1 cells stimulated with BzATP (Example 9). The format is cell-based. The conditions noted are these: for inhibition at 0.3 µM: 0.3 μM concentration; for inhibition at 0.3 µM / inhibition at 0.1 µM: read-out: IL-1β % Inhib. @ 0.3 or 0.1 μM; for IC50: four parameter logistic fit, read-out: IL-1β IC50; for inhibition at 0.1 µM: 0.1 μM concentration. Put shortly:
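Differentiated THP-1 cells pretreated 30 min with compound, then stimulated with BzATP. Released IL-1β in supernatant measured by ELISA; background-adjusted percent inhibition fitted to four-parameter logistic for IC50.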

Series [1] is described as follows: Half-life in human liver microsomes (HLM). The format is in vitro ADME. The following applies: pH 7.4, 1 μM compound, 0.78 mg/mL HLM, NADPH, 37° C. (In general: Microsomes from liver hold many membrane-bound enzymes, among them those of drug oxidation.)
Method: Test compounds (1 μM) are incubated with 3.3 mM MgCl2 and 0.78 mg/mL HLM (HL101) in 100 mM potassium phosphate buffer (pH 7.4) at 37° C. on the 96-deep well plate. The reaction mixture is split into two groups, a non-P450 and a P450 group. NADPH is only added to the reaction mixture of the P450 group. An aliquot of samples of P450 group is collected at 0, 10, 30, and 60 min time point, where 0 min time point indicated the time when NADPH is added into the reaction mixture of P450 group. An aliquot of samples of non-P450 group is collected at −10 and 65 min time point. Collected aliquots are extracted with acetonitrile solution containing an internal standard. The precipitated protein is spun down in centrifuge (2000 rpm, 15 min). The compound concentration in supernatant is measured by LC/MS/MS system.
The half-life value is obtained by plotting the natural logarithm of the peak area ratio of compounds/internal standard versus time. The slope of the line of best fit through the points yields the rate of metabolism (k).

The structures appear in SMILES notation.

For orientation: IC50 means the concentration needed to halve the response being measured. The term half-life denotes the time in which the quantity being followed falls by half. A lower half-life goes with rapid decline. Turning to `O=C(Cc1ccc(Cl)c(C(F)(F)F)c1)Nc1cccc2c(=O)n([C@H]3CCNC3)ccc12` [ID 825], on P2X7 receptor, the inhibition at 0.3 µM is above 76% and the IC50 was 16.4 nM. The half-life at 1 μM in series [1] is 4.27 h.

Regarding `C[C@H](C(=O)Nc1cccc2c(=O)n(C3CNCC3O)ccc12)c1ccc(Cl)cc1` (stereo partly drawn) [ID 829], on P2X7 receptor, the inhibition at 0.3 µM is above 76% and the IC50 amounted to 19.9 nM. The same molecule showed a half-life at 1 μM in series [1] of 1.54 h.

Consider `O=C(Cc1ccc(Cl)cc1F)Nc1cccc2c(=O)n(C3CC3)ccc12` [ID 883], for which, at P2X7 receptor, the inhibition at 0.3 µM is above 76% and the IC50 is 14.7 nM. In addition, in series [1], the half-life at 1 μM was 0.54 h.

For the molecule `O=C(Cc1ccc(Cl)c(C(F)(F)F)c1)Nc1cccc2c(=O)n(C3CNCC3O)ccc12` (stereo not drawn) [ID 826], on P2X7 receptor, the inhibition at 0.3 µM was above 76% and the IC50 was found to be 2.44 nM. In series [1], this molecule had a half-life at 1 μM of 1.85 h.

Take `Cc1ccc(-n2ccc3c(NC(=O)CC45CC6CC(CC(C6)C4)C5)cccc3c2=O)cn1` [ID 715]: at P2X7 receptor, the inhibition at 0.3 µM was above 76% and the IC50 was determined as 4.02 nM. The half-life at 1 μM in series [1] is 0.42 h.

Consider `Cc1ncccc1-n1ccc2c(NC(=O)Cc3ccc(C(F)(F)F)c(F)c3)cccc2c1=O` [ID 855], for which, at P2X7 receptor, the inhibition at 0.3 µM is above 76% and the IC50 came to 11 nM. Further, in series [1], the half-life at 1 μM was 0.73 h.

With `COc1ncccc1-n1ccc2c(NC(=O)Cc3ccc(Cl)c(C(F)(F)F)c3)cccc2c1=O` [ID 847], at P2X7 receptor, the inhibition at 0.3 µM is above 76% and the IC50 came to 9.37 nM. Further, in series [1], the half-life at 1 μM is 0.22 h.

Regarding `O=C(CC1CCCCCC1)Nc1cccc2c(=O)n(C3CNCC3O)ccc12` (stereo not drawn) [ID 828], at P2X7 receptor, the inhibition at 0.3 µM is above 76% and the IC50 was determined as 6.87 nM. Moreover, the half-life at 1 μM in series [1] is 1.38 h.

For the molecule `CC1(C)CC(CC(=O)Nc2cccc3c(=O)n([C@@H]4CCNC4)ccc23)CC(C)(C)C1` [ID 830], at P2X7 receptor, the inhibition at 0.3 µM is above 76%. In series [1], this molecule gave a half-life at 1 μM of 5.59 h.

Consider `Cc1ncccc1-n1ccc2c(NC(=O)Cc3ccc(Cl)c(C(F)(F)F)c3)cccc2c1=O` [ID 861], for which, on P2X7 receptor, the inhibition at 0.3 µM is above 76% and the IC50 was found to be 4 nM. The half-life at 1 μM in series [1] is 0.49 h.

Turning to `O=C(Cc1ccc(C(F)(F)F)c(F)c1)Nc1cccc2c(=O)n(-c3cccnc3F)ccc12` [ID 871], on P2X7 receptor, the inhibition at 0.3 µM was above 76% and the IC50 came out at 8.72 nM. This molecule showed a half-life at 1 μM in series [1] of 1.08 h.

Take `C[C@@H](C(=O)Nc1cccc2c(=O)n([C@H]3CCNC3)ccc12)c1ccc(Cl)c(Cl)c1` [ID 833]: at P2X7 receptor, the inhibition at 0.3 µM was above 76% and the IC50 was found to be 35 nM. This molecule also had a half-life at 1 μM in series [1] of 3.62 h.

As for `O=C(Cc1ccc(F)c(C(F)(F)F)c1)Nc1cccc2c(=O)n(C3CC3)ccc12` [ID 884], at P2X7 receptor, the inhibition at 0.3 µM was above 76% and the IC50 is 5.37 nM. Further, the half-life at 1 μM in series [1] is 0.77 h.

For the molecule `CCOC(=O)N1CCC(n2ccc3c(NC(=O)c4ccc(OC)c(Cl)c4)cccc3c2=O)CC1` [ID 756], the inhibition at 0.1 µM at P2X7 receptor fell in the range of 0 to 25%.

Regarding `CCOC(=O)N1CCC(n2ccc3c(NC(=O)c4cccc(OCC)c4)cccc3c2=O)CC1` [ID 757], at P2X7 receptor, the inhibition at 0.1 µM is 0 to 25%.

Consider `O=C(Cc1ccc(Cl)c(F)c1)Nc1cccc2c(=O)n(C3CCC3)ccc12` [ID 897], for which, on P2X7 receptor, the inhibition at 0.3 µM is above 76% and the IC50 was 24.5 nM.

As for `COc1ccccc1CCC(=O)Nc1cccc2c(=O)n(-c3cc(C)on3)ccc12` [ID 724], at P2X7 receptor, the inhibition at 0.1 µM was 0 to 25%.

For the molecule `Cc1ccc(C)c(C(=O)Nc2cccc3c(=O)n(-c4cc(C)on4)ccc23)c1` [ID 722], the inhibition at 0.1 µM on P2X7 receptor lay in the range of 26 to 50%.

Turning to `O=C(Cc1ccc(Cl)c(C(F)(F)F)c1)Nc1cccc2c(=O)n(C3CCNC3)ccc12` (stereo not drawn) [ID 814], on P2X7 receptor, the inhibition at 0.3 µM was above 76% and the IC50 is 15.9 nM. The molecule also had a half-life at 1 μM in series [1] of 2.88 h.

With `Cc1cc(-n2ccc3c(NC(=O)CCc4cccc(Cl)c4)cccc3c2=O)no1` [ID 746], the inhibition at 0.1 µM on P2X7 receptor lay in the range of 51 to 75%.

For `CCOC(=O)N1CCC(n2ccc3c(NC(=O)c4ccc5c(c4)OCCCO5)cccc3c2=O)CC1` [ID 799], the inhibition at 0.1 µM on P2X7 receptor is 0 to 25%.

As for `O=C(Cc1ccc(Cl)c(Cl)c1)Nc1cccc2c(=O)n([C@H]3CCNC3)ccc12` [ID 822], on P2X7 receptor, the inhibition at 0.3 µM was above 76% and the IC50 came out at 31.3 nM.

Turning to `Cc1ncccc1-n1ccc2c(NC(=O)Cc3ccc(F)c(F)c3F)cccc2c1=O` [ID 867], on P2X7 receptor, the inhibition at 0.3 µM was above 76% and the IC50 turned out to be 40.5 nM.

For `CC(C(=O)Nc1cccc2c(=O)n(C3CCNC3)ccc12)c1ccc(Cl)cc1` (stereo not drawn) [ID 821], on P2X7 receptor, the inhibition at 0.3 µM lay within 51 to 75% and the IC50 was 252 nM.

Turning to `CCOC(=O)N1CCC(n2ccc3c(NC(=O)Cc4ccccc4OCC)cccc3c2=O)CC1` [ID 805], the inhibition at 0.1 µM on P2X7 receptor is 0 to 25%.

For `CCOC(=O)N1CCC(n2ccc3c(NC(=O)Cc4c(C)cc(C)cc4C)cccc3c2=O)CC1` [ID 754], the inhibition at 0.1 µM on P2X7 receptor was in the range of 0 to 25%.

In the case of `CC(C(=O)Nc1cccc2c(=O)n(-c3cc[nH]n3)ccc12)C1CCCCCC1` (stereo not drawn) [ID 843], at P2X7 receptor, the inhibition at 0.3 µM was above 76% and the IC50 was 12.2 nM.

As to `CCOC(=O)N1CCC(n2ccc3c(NC(=O)c4cccc5c4OCCO5)cccc3c2=O)CC1` [ID 798], the inhibition at 0.1 µM at P2X7 receptor was 0 to 25%.

For the molecule `Cc1ccc(C)c(CC(=O)Nc2cccc3c(=O)n(-c4cc(C)on4)ccc23)c1` [ID 716], the inhibition at 0.1 µM on P2X7 receptor lay within 0 to 25%.

With `O=C(Cc1ccc(C(F)(F)F)cc1C(F)(F)F)Nc1cccc2c(=O)n(C3CC3)ccc12` [ID 880], on P2X7 receptor, the inhibition at 0.3 µM was above 76% and the IC50 came to 67.8 nM.

As to `CCOC(=O)N1CCC(n2ccc3c(NC(=O)c4ccc(OC)cc4C)cccc3c2=O)CC1` [ID 749], the inhibition at 0.1 µM on P2X7 receptor was in the range of 0 to 25%.

In the case of `Cc1ncccc1-n1ccc2c(NC(=O)Cc3ccc(Cl)c(F)c3)cccc2c1=O` [ID 858], on P2X7 receptor, the inhibition at 0.3 µM was above 76% and the concentration for half-maximal inhibition (IC50) came out at 32.8 nM.

Regarding `CCOC(=O)N1CCC(n2ccc3c(NC(=O)Cc4cc(OC)cc(OC)c4)cccc3c2=O)CC1` [ID 791], the inhibition at 0.1 µM on P2X7 receptor lay in the range of 0 to 25%.

With `CCOC(=O)N1CCC(n2ccc3c(NC(=O)CCc4ccccc4C)cccc3c2=O)CC1` [ID 751], at P2X7 receptor, the inhibition at 0.1 µM lay within 0 to 25%.

Turning to `Cc1cc(-n2ccc3c(NC(=O)c4ccccc4Cl)cccc3c2=O)no1` [ID 719], the inhibition at 0.1 µM on P2X7 receptor lay in the range of 0 to 25%.

As for `CCOc1cccc(C(=O)Nc2cccc3c(=O)n(-c4cc(C)on4)ccc23)c1` [ID 717], the inhibition at 0.1 µM at P2X7 receptor is 0 to 25%.

On to `O=C(Cc1ccc(C(F)(F)F)c(F)c1)Nc1cccc2c(=O)n(C3CC3)ccc12` [ID 879], for which, on P2X7 receptor, the inhibition at 0.3 µM is above 76% and the IC50 was determined as 6.79 nM.

Turning to `CCOC(=O)N1CCC(n2ccc3c(NC(=O)CCc4cccc(Cl)c4)cccc3c2=O)CC1` [ID 811], the inhibition at 0.1 µM at P2X7 receptor fell in the range of 0 to 25%.

For `O=C(Cc1ccc(F)c(C(F)(F)F)c1)Nc1cccc2c(=O)n(-c3cccnc3F)ccc12` [ID 872], at P2X7 receptor, the inhibition at 0.3 µM is above 76% and the IC50 came out at 30.4 nM.
